Assay [1] deals with Oryctolagus cuniculus. Put plainly: Hypotensive effect in normotensive chinchilla rabbits assessed as reduction in intraocular pressure administered once to both eyes and measured every hour for 6 hrs by automatic veterinary tonometer based assay relative to control. In kind it is functional. The arrangement: concentration or dose not given beside the values.
In assay [2] the test system is Oryctolagus cuniculus. Put plainly: Hypotensive effect in normotensive chinchilla rabbits assessed as maximal effective time administered once to both eyes and measured every hour for 6 hrs by automatic veterinary tonometer based assay. It is filed as functional.
In assay [3] the test system is Oryctolagus cuniculus. Put plainly: Hypotensive effect in New Zealand white rabbits assessed as reduction in intraocular pressure at 100 uM administered topically in presence of 6-hydroxydopamine and measured every hour for 8 hrs relative to control. The arrangement: scale not given: the % may be the effect or the level left. It is filed as functional.
Assay [4] relates to Oryctolagus cuniculus. Put plainly: Hypotensive effect in New Zealand white rabbits assessed as reduction in intraocular pressure at 100 uM administered topically in presence of reserpine and measured every hour for 8 hrs relative to control. On the set-up: scale not given: the % may be the effect or the level left. It is filed as functional.
Assay [5] has as its system Oryctolagus cuniculus. Put plainly: Hypotensive effect in normotensive chinchilla rabbits assessed as reduction in intraocular pressure administered once to both eyes and measured after 6 hrs by automatic veterinary tonometer based assay relative to control. On the set-up: scale not given: the % may be the effect or the level left. It is filed as functional.
Assay [6] relates to Oryctolagus cuniculus. Put plainly: Hypotensive effect in normotensive chinchilla rabbits assessed as reduction in intraocular pressure administered once to both eyes and measured after 6 hrs by automatic veterinary tonometer based assay. It is filed as functional, organism-based.

Activity and Time data for six compounds are collected here from ChEMBL document CHEMBL5247666, “The rational design of novel 5-amino-2-oxindole derivatives with antiglaucomic activity” (2023).

SMILES strings stand for the structures. Calls of active or inactive are those of the source. The rule behind the calls is not given here.

Take `COC(=O)Nc1ccc2c(c1)C(CC(=O)O)C(=O)N2` (stereo unspecified): the Activity in the assay on Oryctolagus cuniculus [1] worked out at 12%. In the assay with Oryctolagus cuniculus [2], the Time is 3 h.
For `COC(=O)Nc1ccc2[nH]cc(CCNC(C)=O)c2c1`, the Activity in the assay with Oryctolagus cuniculus [3] and in the assay on Oryctolagus cuniculus [4] was 5% throughout.
For `COC(=O)Nc1ccc2c(c1)C(CC#N)C(=O)N2` (stereo unspecified), the Activity in the assay with Oryctolagus cuniculus [1] is 24%; with Oryctolagus cuniculus [5] it was 17%. For the same compound, in the assay with Oryctolagus cuniculus [2], the Time came to 2 h.
For `CCOC(=O)Nc1ccc2c(c1)C(CC#N)C(=O)N2` (stereo unspecified), the Activity in the assay on Oryctolagus cuniculus [1] is 8%. Moreover, the Time with Oryctolagus cuniculus [2] is 5 h.
For `COc1ccc2[nH]cc(CCNC(C)=O)c2c1` [MELATONIN], the results for the Activity in the assay with Oryctolagus cuniculus [1], in the assay on Oryctolagus cuniculus [3] and in the assay with Oryctolagus cuniculus [4] were 12%, 5% and 5%, respectively. Also, in the assay with Oryctolagus cuniculus [2], the Time was 3 h.
Consider `CC(C)(C)NC[C@H](O)COc1nsnc1N1CCOCC1` [TIMOLOL], for which the outcome with Oryctolagus cuniculus [6] was inactive. The Activity in the assay on Oryctolagus cuniculus [1] was determined as 18%. The Time in the assay with Oryctolagus cuniculus [2] was 3 h.
